Source: ChEMBL document CHEMBL1201862, “PubChem BioAssay data set” (2004)
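Method: 48-hour compound exposure of cells in 96-well plates, five concentrations, linear interpolation of endpoints. The concentration for 50% growth inhibition is given as GI50.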 Activity calls are given as the source filed them. No stated cut-off is given here; in the data, active = GI50 up to about 1.1 µM and inactive = higher.

Experiments:
Assay in all cases: inhibition of tumour cell growth, NCI panel, 48 h
NCI-H226 = test system: NCI-H226
ACHN = test system: ACHN
RXF 393 = test system: RXF 393
HL-60 = test system: HL-60
SN12C = test system: SN12C
786-0 = test system: 786-0
HOP-62 = test system: HOP-62
A498 = test system: A498
HCT-116 = test system: HCT-116
SF-268 = test system: SF-268
MOLT-4 = test system: MOLT-4
U-251 = test system: U-251
OVCAR-8 = test system: OVCAR-8
UACC-62 = test system: UACC-62
SF-295 = test system: SF-295
SK-MEL-28 = test system: SK-MEL-28
OVCAR-3 = test system: OVCAR-3
HCT-15 = test system: HCT-15
CCRF-CEM = test system: CCRF-CEM

Row | SMILES | GI50 (NCI-H226) | GI50 (ACHN) | GI50 (RXF 393) | GI50 (HL-60) | GI50 (SN12C) | GI50 (786-0) | GI50 (HOP-62) | GI50 (A498) | GI50 (HCT-116) | GI50 (SF-268) | GI50 (MOLT-4) | GI50 (U-251) | GI50 (OVCAR-8) | GI50 (UACC-62) | GI50 (SF-295) | GI50 (SK-MEL-28) | GI50 (OVCAR-3) | GI50 (HCT-15) [µM] | GI50 (CCRF-CEM)
1 | CC(=O)Nc1ccc(-c2cc(C(=O)O)c3cc4ccccc4cc3n2)cc1 | > 100 µM (inactive) | > 100 µM (inactive) | > 100 µM (inactive) | > 100 µM (inactive) | > 100 µM (inactive) | > 100 µM (inactive) | > 100 µM (inactive) | > 100 µM (inactive) | > 100 µM (inactive) | > 100 µM (inactive) | > 100 µM (inactive) | > 100 µM (inactive) | > 100 µM (inactive) | > 100 µM (inactive) | > 100 µM (inactive) | > 100 µM (inactive) | > 100 µM (inactive) | > 100 | –
2 | Clc1ccc(CSc2ncnc3c2ncn3C2CCCCO2)cc1 (stereo not drawn) | 28.4 µM (inactive) | 16.1 µM (inactive) | 25.1 µM (inactive) | – | 18.3 µM (inactive) | 22.5 µM (inactive) | 18.7 µM (inactive) | 16.4 µM (inactive) | 20.8 µM (inactive) | 23.3 µM (inactive) | – | 19.6 µM (inactive) | 22.9 µM (inactive) | 15.7 µM (inactive) | 15.7 µM (inactive) | 22.8 µM (inactive) | 15.7 µM (inactive) | 26.5 | –
3 | COC(=O)C(CCCCN)NC(C)=O.Cc1ccc(C(=O)Nc2ccc(S(=O)(=O)O)c3cc(S(=O)(=O)O)cc(S(=O)(=O)O)c23)cc1NC(=O)c1cccc(NC(=O)Nc2cccc(C(=O)Nc3cc(C(=O)Nc4ccc(S(=O)(=O)O)c5cc(S(=O)(=O)O)cc(S(=O)(=O)O)c45)ccc3C)c2)c1 | > 50 µM (inactive) | > 50 µM (inactive) | 37.4 µM (inactive) | > 50 µM (inactive) | > 50 µM (inactive) | > 50 µM (inactive) | – | > 50 µM (inactive) | > 50 µM (inactive) | > 50 µM (inactive) | > 50 µM (inactive) | > 50 µM (inactive) | > 50 µM (inactive) | > 50 µM (inactive) | > 50 µM (inactive) | > 50 µM (inactive) | > 50 µM (inactive) | 23.9 | > 50 µM (inactive)
4 | Cc1ccc(S(=O)(=O)NC2C(=O)c3ccccc3C(=O)C2n2ccnc2)cc1 (stereo not drawn) | > 100 µM (inactive) | > 100 µM (inactive) | 31.2 µM (inactive) | 18.6 µM (inactive) | 15 µM (inactive) | 17.4 µM (inactive) | > 100 µM (inactive) | – | 20.4 µM (inactive) | > 100 µM (inactive) | 25.7 µM (inactive) | > 100 µM (inactive) | > 100 µM (inactive) | 33.1 µM (inactive) | > 100 µM (inactive) | > 100 µM (inactive) | 42.5 µM (inactive) | > 100 | 20 µM (inactive)
5 | CCOC(=O)C(NC(=O)c1ccccc1)(c1ccc(S(=O)(=O)Nc2onc(C)c2C)cc1)C(F)(F)F (stereo not drawn) | > 100 µM (inactive) | > 100 µM (inactive) | > 100 µM (inactive) | > 100 µM (inactive) | > 100 µM (inactive) | > 100 µM (inactive) | > 100 µM (inactive) | – | > 100 µM (inactive) | > 100 µM (inactive) | > 100 µM (inactive) | > 100 µM (inactive) | > 100 µM (inactive) | > 100 µM (inactive) | > 100 µM (inactive) | > 100 µM (inactive) | > 100 µM (inactive) | > 100 | > 100 µM (inactive)
6 | OCCOCn1nncc1Cn1ncc2c(SCc3ccccc3)ncnc21 | > 100 µM (inactive) | > 100 µM (inactive) | > 100 µM (inactive) | 16.5 µM (inactive) | 59.4 µM (inactive) | 34.7 µM (inactive) | > 100 µM (inactive) | > 100 µM (inactive) | 45.9 µM (inactive) | > 100 µM (inactive) | 6.19 µM (inactive) | > 100 µM (inactive) | 64 µM (inactive) | > 100 µM (inactive) | > 100 µM (inactive) | > 100 µM (inactive) | > 100 µM (inactive) | 57.3 | –
7 | CCOC(=O)[C@H]1C[C@@H](C(=O)c2ccccc2)N2N=C(c3ccc(Br)cc3)C=C[C@H]12 | > 100 µM (inactive) | > 100 µM (inactive) | > 100 µM (inactive) | – | > 100 µM (inactive) | > 100 µM (inactive) | > 100 µM (inactive) | > 100 µM (inactive) | > 100 µM (inactive) | > 100 µM (inactive) | 77.6 µM (inactive) | > 100 µM (inactive) | > 100 µM (inactive) | > 100 µM (inactive) | > 100 µM (inactive) | > 100 µM (inactive) | > 100 µM (inactive) | > 100 | –
8 | COC(=O)c1ccccc1Nc1nc(-c2cccs2)nc2cc(OC)c(OC)cc12 | 23.4 µM (inactive) | 47.8 µM (inactive) | 68.1 µM (inactive) | > 100 µM (inactive) | 48.5 µM (inactive) | 38.8 µM (inactive) | 18.3 µM (inactive) | > 100 µM (inactive) | 37.5 µM (inactive) | 46.3 µM (inactive) | 57.9 µM (inactive) | 31.2 µM (inactive) | 15.2 µM (inactive) | 52.6 µM (inactive) | 29.2 µM (inactive) | > 100 µM (inactive) | 40.2 µM (inactive) | 90.2 | –
9 | O=[N+]([O-])c1cccc(-c2ccc([C@H]3CC(c4ccc(Cl)cc4)=NN3)o2)c1 | 25.5 µM (inactive) | 17.7 µM (inactive) | 16.8 µM (inactive) | 0.893 µM (active) | 16.7 µM (inactive) | 14.6 µM (inactive) | 20.3 µM (inactive) | 31.6 µM (inactive) | 15.2 µM (inactive) | 27 µM (inactive) | 0.891 µM (active) | – | 12.3 µM (inactive) | 16.3 µM (inactive) | 44.8 µM (inactive) | – | 18.9 µM (inactive) | 5.15 | 1.43 µM (inactive)
10 | CCOP(=O)(OCC)/C(C#N)=C/c1cccn1CC(C)C | 35.7 µM (inactive) | > 100 µM (inactive) | > 100 µM (inactive) | – | > 100 µM (inactive) | > 100 µM (inactive) | > 100 µM (inactive) | > 100 µM (inactive) | > 100 µM (inactive) | > 100 µM (inactive) | 52.5 µM (inactive) | > 100 µM (inactive) | > 100 µM (inactive) | > 100 µM (inactive) | > 100 µM (inactive) | > 100 µM (inactive) | > 100 µM (inactive) | > 100 | –
11 | CCC/N=C/c1cc(Cc2ccc(O)c(/C=N/CCC)c2)ccc1O | 8.43 µM (inactive) | 20.7 µM (inactive) | 16.3 µM (inactive) | 2.21 µM (inactive) | 3.82 µM (inactive) | 12.8 µM (inactive) | 14.1 µM (inactive) | 2.37 µM (inactive) | 2.37 µM (inactive) | 3.8 µM (inactive) | 1.54 µM (inactive) | 2.64 µM (inactive) | 3.1 µM (inactive) | 5.53 µM (inactive) | 12.9 µM (inactive) | – | 2.91 µM (inactive) | 3.33 | –
12 | C=C1[C@H](OC(C)=O)[C@H]2[C@@H](OC(C)=O)[C@@H](C)C[C@]2(C)C(=O)[C@H](C)/C=C/C(C)(C)C(=O)[C@H](OCC(C)C)[C@H]1OC(C)=O | > 25 µM (inactive) | > 25 µM (inactive) | > 25 µM (inactive) | 7.57 µM (inactive) | > 25 µM (inactive) | > 25 µM (inactive) | 19.5 µM (inactive) | > 25 µM (inactive) | > 25 µM (inactive) | > 25 µM (inactive) | 20.7 µM (inactive) | > 25 µM (inactive) | > 25 µM (inactive) | > 25 µM (inactive) | 22.9 µM (inactive) | – | > 25 µM (inactive) | > 25 | 20.2 µM (inactive)
13 | Cc1cc2c(=O)c3ccccc3oc2c(C#N)c1C | – | > 100 µM (inactive) | > 100 µM (inactive) | > 100 µM (inactive) | – | > 100 µM (inactive) | > 100 µM (inactive) | > 100 µM (inactive) | > 100 µM (inactive) | > 100 µM (inactive) | > 100 µM (inactive) | > 100 µM (inactive) | > 100 µM (inactive) | – | > 100 µM (inactive) | > 100 µM (inactive) | – | – | > 100 µM (inactive)
14 | CC(C)(C)O/C=C1/C(=O)OC2C[C@@H](O[Si](C)(C)C(C)(C)C)CC12 (stereo partly drawn) | 92.7 µM (inactive) | 72.6 µM (inactive) | 0.759 µM (active) | – | 34.7 µM (inactive) | > 100 µM (inactive) | > 100 µM (inactive) | > 100 µM (inactive) | 37.1 µM (inactive) | 80.9 µM (inactive) | – | 48 µM (inactive) | 48.1 µM (inactive) | – | 61.5 µM (inactive) | > 100 µM (inactive) | 48.4 µM (inactive) | 49.3 | 42.7 µM (inactive)
15 | CC1OC(O)C(O)C(O)C1O (stereo not drawn) | > 100 µM (inactive) | > 100 µM (inactive) | > 100 µM (inactive) | – | > 100 µM (inactive) | > 100 µM (inactive) | > 100 µM (inactive) | > 100 µM (inactive) | > 100 µM (inactive) | > 100 µM (inactive) | – | > 100 µM (inactive) | > 100 µM (inactive) | > 100 µM (inactive) | > 100 µM (inactive) | > 100 µM (inactive) | > 100 µM (inactive) | > 100 | –
16 | C[n+]1c(-c2ccc(/C=N\N3CCN(/N=C/c4ccc(-c5cn6ccsc6[n+]5C)cc4)CC3)cc2)cn2ccsc21 | 45.8 µM (inactive) | 65.5 µM (inactive) | 27.3 µM (inactive) | 21.2 µM (inactive) | 35.2 µM (inactive) | 26.1 µM (inactive) | – | 23.1 µM (inactive) | 33.3 µM (inactive) | 34.4 µM (inactive) | 85.3 µM (inactive) | 30.3 µM (inactive) | 41.7 µM (inactive) | 22.1 µM (inactive) | 28.6 µM (inactive) | – | 59.8 µM (inactive) | 34.5 | 36.7 µM (inactive)
